conditions: [M+2Na-H]+; instrument: DT; stepped-field

collision cross section (N2)	Compound
275.64 Å²	CCCCCC/C=C\CCCCCCCCCC(=O)O[C@H](COC(=O)CCCCCCCCCCCCCCC)COP(=O)(O)OCCN [PE(34:01)]
297.48 Å²	CCCCC/C=C\C/C=C\C/C=C\C/C=C\CCCCCC(=O)O[C@H](COC(=O)CCCCCCCCC/C=C\C/C=C\CCCCC)COP(=O)(O)OC[C@H](N)C(=O)O [PS(42:06)]
289.33 Å²	CCCCC/C=C\C/C=C\CCCCCCCC(=O)O[C@H](COCCCCCCCCCCCCCCCCCCCC)COP(=O)(O)OCCN [PE(o38:02)]
270.03 Å²	CCCCC/C=C\C/C=C\C/C=C\C/C=C\CCCC(=O)O[C@H](COC(=O)CCCCCCCCCCCCCCC)COP(=O)(O)O [PA(36:04)]
284.68 Å²	CCCCC/C=C\C/C=C\C/C=C\C/C=C\CCCC(=O)O[C@H](COCCCCCCCCCCCCCCCCCC)COP(=O)(O)OCCN [PE(o38:04)]
292.63 Å²	CC/C=C\C/C=C\C/C=C\C/C=C\C/C=C\CCCC(=O)OC[C@H](COP(=O)(O)OC[C@H](N)C(=O)O)OC(=O)CCCCC/C=C\C/C=C\C/C=C\C/C=C\CCCCC [PS(42:09)]
283.9 Å²	CCCCCC/C=C/CCCCCCCCCC(=O)O[C@H](COC(=O)CCCCCCCCCCCCCCC)COP(=O)([O-])OCC[N+](C)(C)C [PC(34:01)]
273.1 Å²	CCCC/C=C\CCCCCCCC(=O)OC[C@H](COP(=O)(O)O)OC(=O)CCCCCCCCC/C=C\CCCCCCCCCC [PA(36:02)]
287.42 Å²	CCCCC/C=C\C/C=C\C/C=C\CCCCC(=O)O[C@H](COCCCCCCCCCCCCCCCCCCCC)COP(=O)(O)OCCN [PE(o38:03)]
273.28 Å²	CCCCC/C=C\C/C=C\CCCCCCCCCCCC(=O)O[C@H](COC(=O)CCCCCCCCCCC)COP(=O)(O)OCCN [PE(34:02)]
288.75 Å²	CCCCC/C=C\C/C=C\C/C=C\CCCCCCC(=O)O[C@H](COC(=O)CCCCCCC/C=C\CCCCCCCC)COP(=O)(O)OC[C@H](N)C(=O)O [PS(38:04)]
294.68 Å²	CCCCCCCCCCCCCCCCCCCC(=O)N[C@@H](COP(=O)([O-])OCC[N+](C)(C)C)[C@H](O)CCCCCCCCCCCCCCC [SM(38:00)]
268.9 Å²	CCCCCCCC/C=C\CCCCCCCCCC(=O)O[C@H](COC(=O)CCCCCCCCCCC)COP(=O)(O)OCCN [PE(32:01)]

same assay, conditions: [M+Cl]-; instrument: DT; stepped-field

collision cross section (N2)	Compound
294.7 Å²	CCCCCCCCCCCCC=CC[C@@H](O)[C@H](COP(=O)([O-])OCC[N+](C)(C)C)NC(=O)CCCCCCCCCCCCCCCCCCC [SM(38:01)]
299.51 Å²	CCCCC/C=C\C/C=C\CCCC/C=C\CCCC(=O)O[C@H](COC(=O)CCCCCCCCCCCCCCCCC)COP(=O)([O-])OCC[N+](C)(C)C [PC(38:03)]
298.88 Å²	CCCCCCCCCCCCC=CC[C@@H](O)[C@H](CO[C@@H]1O[C@H](CO)[C@@H](O)C(O)C1O)NC(=O)CCCCCCCCCCCCCCCCCCCCCCC (stereo partly drawn) [GlcCer(42:01)]
290.47 Å²	CCCCCC/C=C/CCCCCCCCCC(=O)O[C@H](COC(=O)CCCCCCCCCCCCCCC)COP(=O)([O-])OCC[N+](C)(C)C [PC(34:01)]

same assay, conditions: [M+H-2H2O]+; instrument: DT; stepped-field

collision cross section (N2)	Compound
271.35 Å²	CCCCCCCCCCCCC=CC[C@@H](O)[C@H](CO)NC(=O)CC=CCCCCCCCCCCCCCCCCCCCC [Cer(42:02)]
307.66 Å²	CCCCCCCCCCCCC=CC[C@@H](O)[C@H](CO[C@@H]1O[C@H](CO)[C@@H](O)C(O)C1O)NC(=O)CC=CCC=CCCCCCCCCCCCCCCCCCCCCCC (stereo partly drawn) [GlcCer(47:03)]

same assay, conditions: [M+H-H2O]+; instrument: DT; stepped-field

collision cross section (N2)	Compound
263.93 Å²	CCCCCCCCCCCCC=CC[C@@H](O)[C@H](CO)NC(=O)CCCCCCCCCCCCCCCCCCC [Cer(38:01)]
273.26 Å²	CCCCCCCCCCCCC=CC[C@@H](O)[C@H](CO)NC(=O)CC=CCCCCCCCCCCCCCCCCCCCC [Cer(42:02)]
286.62 Å²	CCCCCCCCCCCCC=CC[C@@H](O)[C@H](CO[C@@H]1O[C@H](CO)[C@@H](O)C(O)C1O)NC(=O)CCCCCCCCCCCCCCCCCCC (stereo partly drawn) [GlcCer(38:01)]
301.46 Å²	CCCCCCCCCCCCC=CC[C@@H](O)[C@H](CO[C@@H]1O[C@H](CO)[C@@H](O)C(O)C1O)NC(=O)CC=CCCCCCCCCCCCCCCCCCCCCCC (stereo partly drawn) [GlcCer(44:02)]
298.36 Å²	CCCCCCCCCCCCC=CC[C@@H](O)[C@H](CO[C@@H]1O[C@H](CO)[C@@H](O)C(O)C1O)NC(=O)CCCCCCCCCCCCCCCCCCCCCCC (stereo partly drawn) [GlcCer(42:01)]
272.16 Å²	CCCCCCCCCCCCC=CC[C@@H](O)[C@H](CO)NC(=O)CCCCCCCCCCCCCCCCCCCCCC [Cer(41:01)]

same assay, conditions: [M+HCOO]-; instrument: DT; stepped-field

collision cross section (N2)	Compound
296.3 Å²	CCCCCCCCCCCCC=CC[C@@H](O)[C@H](COP(=O)([O-])OCC[N+](C)(C)C)NC(=O)CCCCCCCCCCCCCCCCCCC [SM(38:01)]
302.85 Å²	CCCCCCCCCCCCC=CC[C@@H](O)[C@H](CO[C@@H]1O[C@H](CO)[C@@H](O)C(O)C1O)NC(=O)CCCCCCCCCCCCCCCCCCCCCCC (stereo partly drawn) [GlcCer(42:01)]
290.79 Å²	CCCCCC/C=C/CCCCCCCCCC(=O)O[C@H](COC(=O)CCCCCCCCCCCCCCC)COP(=O)([O-])OCC[N+](C)(C)C [PC(34:01)]

same assay, conditions: [M+H]+; instrument: DT; stepped-field

collision cross section (N2)	Compound
270.06 Å²	CCCCCC/C=C\CCCCCCCCCC(=O)O[C@H](COC(=O)CCCCCCCCCCCCCCC)COP(=O)(O)OCCN [PE(34:01)]
276.77 Å²	CCCCCCCCCCCCC=CC[C@@H](O)[C@H](CO)NC(=O)CC=CCCCCCCCCCCCCCCCCCCCC [Cer(42:02)]
292.26 Å²	CCCCCCCCCCCCC=CC[C@@H](O)[C@H](COP(=O)([O-])OCC[N+](C)(C)C)NC(=O)CCCCCCCCCCCCCCCCCCC [SM(38:01)]
288.15 Å²	CCCCCCCCCCCCC=CC[C@@H](O)[C@H](CO[C@@H]1O[C@H](CO)[C@@H](O)C(O)C1O)NC(=O)CCCCCCCCCCCCCCCCCCC (stereo partly drawn) [GlcCer(38:01)]
305.11 Å²	CCCCCCCCCCCCC=CC[C@@H](O)[C@H](CO[C@@H]1O[C@H](CO)[C@@H](O)C(O)C1O)NC(=O)CC=CCCCCCCCCCCCCCCCCCCCCCC (stereo partly drawn) [GlcCer(44:02)]
300.59 Å²	CCCCCCCCCCCCC=CC[C@@H](O)[C@H](CO[C@@H]1O[C@H](CO)[C@@H](O)C(O)C1O)NC(=O)CCCCCCCCCCCCCCCCCCCCCCC (stereo partly drawn) [GlcCer(42:01)]
301.14 Å²	CCCCCCCCCCCCC=CC[C@@H](O)[C@H](COP(=O)([O-])OCC[N+](C)(C)C)NC(=O)CCCCCCCCCCCCCCCCCCCCCC [SM(41:01)]
288.67 Å²	CCCCCCCCCCCCC=CC[C@@H](O)[C@H](COP(=O)([O-])OCC[N+](C)(C)C)NC(=O)CCCCCCCCCCCCCCCCCC [SM(37:01)]
281.97 Å²	CCCCCC/C=C/CCCCCCCCCC(=O)O[C@H](COC(=O)CCCCCCCCCCCCCCC)COP(=O)([O-])OCC[N+](C)(C)C [PC(34:01)]
268.45 Å²	CCCCC/C=C\C/C=C\CCCCCCCCCCCC(=O)O[C@H](COC(=O)CCCCCCCCCCC)COP(=O)(O)OCCN [PE(34:02)]
284.44 Å²	CCCCC/C=C\C/C=C\C/C=C\CCCCCCC(=O)O[C@H](COC(=O)CCCCCCC/C=C\CCCCCCCC)COP(=O)(O)OC[C@H](N)C(=O)O [PS(38:04)]

same assay, conditions: [M+K]+; instrument: DT; stepped-field

collision cross section (N2)	Compound
277.57 Å²	CCCCCC/C=C\CCCCCCCCCC(=O)O[C@H](COC(=O)CCCCCCCCCCCCCCC)COP(=O)(O)OCCN [PE(34:01)]
294.57 Å²	CC/C=C\C/C=C\C/C=C\C/C=C\C/C=C\CCCC(=O)OC[C@H](COP(=O)(O)OC[C@H](N)C(=O)O)OC(=O)CCCCC/C=C\C/C=C\C/C=C\C/C=C\CCCCC [PS(42:09)]
285.76 Å²	CCCCCC/C=C/CCCCCCCCCC(=O)O[C@H](COC(=O)CCCCCCCCCCCCCCC)COP(=O)([O-])OCC[N+](C)(C)C [PC(34:01)]
274.83 Å²	CCCCC/C=C\C/C=C\CCCCCCCCCCCC(=O)O[C@H](COC(=O)CCCCCCCCCCC)COP(=O)(O)OCCN [PE(34:02)]
